Values joined by “and” are separate entries in the source; they are usually repeats but may differ in a detail not shown here. Equal values may be shown once.
Key:
[1] = for vapor or sublimation pressure: Transpiration method; for Normal melting temperature: DTA
[2] = Molar enthalpy of transition or fusion; details: Crystal; DSC

CCN1CCN(c2cc3c(cc2F)c(=O)c(C(=O)O)cn3C2CC2)CC1 [Enrofloxacin]
[1], Crystal
Details	vapor or sublimation pressure [kPa]
431.15 K	1.79e-06
433.15 K	2.13e-06
435.15 K	2.5e-06
437.15 K	2.92e-06
439.15 K	3.41e-06
441.15 K	4.04e-06
443.15 K	4.71e-06
445.15 K	5.49e-06
447.15 K	6.61e-06
449.15 K	7.56e-06
451.15 K	8.91e-06
453.15 K	1.035e-05

Details	Normal melting temperature [°C]
[1], Crystal	221.6

Details	Molar enthalpy of transition or fusion [kcal/mol]
[2]	7.86

O=C(O)c1ccccc1 [benzoic acid]
[1], Crystal
Details	vapor or sublimation pressure [kPa]
307.15 K	0.000285
323.15 K	0.001674
338.15 K	0.007513
354.15 K	0.0316

O=C(O)c1cn(C2CC2)c2cc(N3CCNCC3)c(F)cc2c1=O [ciprofloxacin]
[1], Crystal
Details	vapor or sublimation pressure [kPa]
436.15 K	1.95e-06
438.15 K	2.43e-06
440.15 K	2.85e-06
442.15 K	3.54e-06
444.15 K	4.3e-06
446.15 K	4.97e-06
448.15 K	5.94e-06
450.15 K	7.09e-06
452.15 K	8.4e-06
454.15 K	1.045e-05
456.15 K	1.228e-05
458.15 K	1.461e-05
460.15 K	1.764e-05

Details	Normal melting temperature [°C]
[1], Crystal	270

C[C@H]1COc2c(N3CCN(C)CC3)c(F)cc3c(=O)c(C(=O)O)cn1c23 [levofloxacin]
[1], Crystal
Details	vapor or sublimation pressure [kPa]
437.15 K	5.71e-06
439.15 K	6.66e-06
441.15 K	8.35e-06
443.15 K	9.72e-06
445.15 K	1.135e-05
447.15 K	1.364e-05
449.15 K	1.607e-05
451.15 K	1.952e-05
453.15 K	2.326e-05
455.15 K	2.722e-05
457.15 K	3.146e-05
459.15 K	3.689e-05

[1]
Details	Normal melting temperature
Crystal	233.0 °C
Metastable crystal	227.0 °C and 230.5 °C

Details	Molar enthalpy of transition or fusion [kcal/mol]
[2]	5.26

CCn1cc(C(=O)O)c(=O)c2cc(F)c(N3CCNCC3)cc21 [norfloxacin]
[1], Crystal
Details	vapor or sublimation pressure [kPa]
423.15 K	1.3e-06
425.15 K	1.57e-06
427.15 K	1.86e-06
429.15 K	2.21e-06
431.15 K	2.66e-06
432.15 K	2.85e-06
434.15 K	3.35e-06
436.15 K	3.92e-06
438.15 K	4.53e-06
440.15 K	5.26e-06
442.15 K	6.02e-06
444.15 K	7.01e-06
446.15 K	8.32e-06

[1]
Details	Normal melting temperature [°C]	Triple point temperature [K]
Crystal	220.4	–
Crystal 2, DSC	–	468.7

Details	Molar enthalpy of transition or fusion [kcal/mol]
[2]	8.63

Source: the NIST ThermoML archive (doi:10.1016/j.jct.2016.10.010)
